Laboratory results from patent US20220324835A1 (Nurix Therapeutics, Inc., priority 2018, published 2022).

Columns and labels:
[1] = molecular target: T1, Cbl-b (Homo sapiens, UniProt Q13191); experiment: Cbl-b inhibition assay (Cbl-b activity assay, FRET, Biological Example 1; 100 mM NaCl, 60 nM Src kinase); format: biochemical
In short: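 Binding-based Cbl-b activity assay. Src-phosphorylated, N-terminally biotin-Avi-tagged Cbl-b recruits labelled UbcH5B-Ub, and proximity to streptavidin-terbium yields FRET.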

[2] = system: T-cell; experiment: CD25 cell surface staining on T-cells stimulated with anti-CD3 antibody alone (Biological Example 2); format: cell-based, human; conditions: T-cell; for fold induction at 8 µM: 8 μM Cbl-b inhibitor
[3] = system: T-cell; experiment: IL-2 secretion from T-cells co-stimulated with anti-CD3 and anti-CD28 antibody (Biological Example 2); format: cell-based, human; conditions: Homo sapiens, T-cell; for fold induction at 4 µM: 4 μM Cbl-b inhibitor
In short: (§1)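 Values are fold-change over baseline: readings (IL-2 release, CD25 staining) from inhibitor-treated T-cells divided against untreated cells […]. No detailed procedure stated.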

[4] = system: T-cell; experiment: CD25 cell surface staining on T-cells co-stimulated with anti-CD3 and anti-CD28 antibody (Biological Example 2); format: cell-based, human; conditions: Homo sapiens, T-cell; for fold induction at 4 µM: 4 μM Cbl-b inhibitor
In short: as §1

[5] = molecular target: T1, Cbl-b; experiment: Cbl-b activity assay (Cbl-b inhibition assay), TR-FRET of Cbl-b interaction with UbcH5B-Ub; format: biochemical
In short: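 Compound-treated Cbl-b was incubated 1.5 h with Src kinase (60 nM final; 30 nM for asterisked values, which also used 50 mM instead of 100 mM NaCl), 1 mM ATP and 5 mM MgCl2. Binding to fluorescent Ub-loaded UbcH5B (C85K mutant) was then read by TR-FRET after 1 h more.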

[6] = system: T-cell; experiment: IL-2 secretion from T-cells stimulated with anti-CD3 antibody alone (Biological Example 2); format: cell-based, human; conditions: T-cell; for fold induction at 8 µM: 8 μM Cbl-b inhibitor
[7] = upper bound stated in text lists, read-out: IC50 values in the Cbl-b inhibition assay of Biological Example 1
[8] = Homo sapiens, 1 μM Cbl-b inhibitor, fold change over baseline (anti-CD3/anti-CD28 stimulated T-cells without inhibitor), read-out: CD25 staining Anti-CD3 stimulation
[9] = 0.3 μM Cbl-b inhibitor, fold change over baseline (anti-CD3/anti-CD28 stimulated T-cells without inhibitor), read-out: IL-2 secretion Anti-CD3/Anti-CD28 stimulation
[10] = 1 μM Cbl-b inhibitor, fold change over baseline (anti-CD3/anti-CD28 stimulated T-cells without inhibitor), read-out: IL-2 secretion Anti-CD3/Anti-CD28 stimulation
[11] = 0.3 μM Cbl-b inhibitor, fold change over baseline (anti-CD3/anti-CD28 stimulated T-cells without inhibitor), read-out: CD25 staining Anti-CD3/Anti-CD28 stimulation
[12] = 1 μM Cbl-b inhibitor, fold change over baseline (anti-CD3/anti-CD28 stimulated T-cells without inhibitor), read-out: CD25 staining Anti-CD3/Anti-CD28 stimulation
[13] = assay buffer with 100 mM NaCl, 60 nM Src kinase, read-out: Cbl-b activity IC50
[14] = Homo sapiens, 1 μM Cbl-b inhibitor, fold change over baseline (anti-CD3/anti-CD28 stimulated T-cells without inhibitor), read-out: IL-2 secretion Anti-CD3 stimulation
[15] = read-out: IL-2 secretion, Anti-CD3/Anti-CD28 stimulation, fold change over baseline
[16] = read-out: CD25 staining, Anti-CD3/Anti-CD28 stimulation, fold change over baseline
[17] = fold change over baseline, 1 μM Cbl-b inhibitor, primary human total T-cells, read-out: CD25 staining Anti-CD3 stimulation
[18] = fold change over baseline, primary human total T-cells, read-out: CD25 staining Anti-CD3 stimulation
[19] = fold change over baseline, 0.3 μM Cbl-b inhibitor, primary human total T-cells, read-out: IL-2 secretion Anti-CD3/Anti-CD28 stimulation
[20] = fold change over baseline, 1 μM Cbl-b inhibitor, primary human total T-cells, read-out: IL-2 secretion Anti-CD3/Anti-CD28 stimulation
[21] = fold change over baseline, primary human total T-cells, read-out: IL-2 secretion Anti-CD3/Anti-CD28 stimulation
[22] = fold change over baseline, 0.3 μM Cbl-b inhibitor, primary human total T-cells, read-out: CD25 staining Anti-CD3/Anti-CD28 stimulation
[23] = fold change over baseline, 1 μM Cbl-b inhibitor, primary human total T-cells, read-out: CD25 staining Anti-CD3/Anti-CD28 stimulation
[24] = fold change over baseline, primary human total T-cells, read-out: CD25 staining Anti-CD3/Anti-CD28 stimulation
[25] = fold change over baseline, 1 μM Cbl-b inhibitor, primary human total T-cells, read-out: IL-2 secretion Anti-CD3 stimulation
[26] = fold change over baseline, primary human total T-cells, read-out: IL-2 secretion Anti-CD3 stimulation

T1 sequence (Q13191 36-427): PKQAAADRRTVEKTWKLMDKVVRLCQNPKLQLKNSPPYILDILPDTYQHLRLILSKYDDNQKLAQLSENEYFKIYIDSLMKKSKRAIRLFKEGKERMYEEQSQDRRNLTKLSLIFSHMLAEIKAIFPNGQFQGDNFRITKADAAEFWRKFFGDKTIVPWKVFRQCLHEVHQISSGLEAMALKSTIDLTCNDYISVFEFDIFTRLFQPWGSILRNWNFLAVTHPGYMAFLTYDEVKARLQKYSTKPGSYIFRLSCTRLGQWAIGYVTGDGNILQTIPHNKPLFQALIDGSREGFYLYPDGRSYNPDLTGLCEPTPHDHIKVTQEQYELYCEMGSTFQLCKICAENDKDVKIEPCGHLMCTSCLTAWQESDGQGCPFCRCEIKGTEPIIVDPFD

SMILES | IC50 [1, 7] | fold induction at 1 µM [2, 8] | fold induction at 0.3 µM [3, 9] | fold induction at 1 µM [3, 10] | fold induction at 0.3 µM [4, 11] | fold induction at 1 µM [4, 12] | IC50 [5, 13] | fold induction at 1 µM [6, 14] | other results
Cn1cnnc1CC1(c2cccc(N3Cc4c(cc(CN5Cc6cccc(F)c6C5)cc4C(F)(F)F)C3=O)c2)COC1 [Example 653, 6-((4-fluoroisoindolin-2-yl)methyl)-2-(3-(3-((4-methyl-4H-1,2,4-triazol-3-yl)methyl)oxetan-3-yl)phenyl)-4-(trifluoromethyl)isoindolin-1-one] | ≤ 100 nM | > 1 | 2.51 to 5 | > 7.5 | 1.31 to 1.5 | 1.31 to 1.5 | < 0.1 µM | > 0.201 | 
Cn1cnnc1CC1(c2cccc(NC(=O)c3nc(C(F)(F)F)cs3)c2)COC1 [Compound 495, N-(3-{3-[(4-methyl-1,2,4-triazol-3-yl)methyl]oxetan-3-yl}phenyl)-4-(trifluoromethyl)-1,3-thiazole-2-carboxamide] |  |  |  |  |  |  |  |  | IC50 ([1]; IC50 values in the Cbl-b inhibition assay of Biological Example 1): ≤ 1000 nM; fold induction at 1 µM ([2]; Homo sapiens, read-out: CD25 staining, Anti-CD3 stimulation, fold change over baseline): 0.601 to 0.8; fold induction at 0.3 µM [3, 15]: 1.01 to 2.5; fold induction at 1 µM [3, 15]: 2.51 to 5; fold induction at 0.3 µM [4, 16]: 1.01 to 1.3; fold induction at 1 µM [4, 16]: 1.01 to 1.3; IC50 ([5]; Cbl-b activity IC50 (μM), assay buffer with 100 mM NaCl, 60 nM Src kinase): 0.301 to 1 µM; fold induction at 1 µM ([6]; Homo sapiens, read-out: IL-2 secretion, Anti-CD3 stimulation, fold change over baseline): < 0.05
Cn1cnnc1CC1(c2cccc(N3Cc4c(cc(C5CCC5)cc4C(F)(F)F)C3=O)c2)COC1 [Example 611, 6-cyclobutyl-2-(3-(3-((4-methyl-4H-1,2,4-triazol-3-yl)methyl)oxetan-3-yl)phenyl)-4-(trifluoromethyl)isoindolin-1-one] | ≤ 100 nM | 0.801 to 1 | 2.51 to 5 | 2.51 to 5 | 1.01 to 1.3 | 1.31 to 1.5 | < 0.1 µM | 0.101 to 0.15 | 
Cn1cnnc1CC1(c2cccc(N3Cc4c(cc(CN5CCC[C@@H](F)C5)cc4C(F)(F)F)C3=O)c2)COC1 [Example 623, (R)-6-((3-fluoropiperidin-1-yl)methyl)-2-(3-(3-((4-methyl-4H-1,2,4-triazol-3-yl)methyl)oxetan-3-yl)phenyl)-4-(trifluoromethyl)isoindolin-1-one] | ≤ 100 nM | > 1 | > 7.5 | > 7.5 | 1.31 to 1.5 | 1.31 to 1.5 | < 0.1 µM | > 0.201 | 
Cn1cnnc1CC(C)(C)c1cccc(NC(=O)c2cccc(C(F)(F)F)n2)c1 [Compound 284, N-(3-(2-methyl-1-(4-methyl-4H-1,2,4-triazol-3-yl)propan-2-yl)phenyl)-6-(trifluoromethyl)picolinamide] | ≤ 100 nM |  |  |  |  |  | < 0.1 µM |  | fold induction at 1 µM [2, 17]: 0.801 to 1; fold induction at 8 µM [2, 18]: > 1; fold induction at 0.3 µM [3, 19]: 1.01 to 2.5; fold induction at 1 µM [3, 20]: 2.51 to 5; fold induction at 4 µM [3, 21]: > 7.5; fold induction at 0.3 µM [4, 22]: 1.01 to 1.3; fold induction at 1 µM [4, 23]: 1.01 to 1.3; fold induction at 4 µM [4, 24]: 1.31 to 1.5; fold induction at 1 µM [6, 25]: > 0.201; fold induction at 8 µM [6, 26]: > 0.201
COc1cccc(C(=O)Nc2cccc([C@H](C)Sc3nncn3C)c2)n1 [Compound 38, (S)-6-Methoxy-N-(3-(1-((4-methyl-4H-1,2,4-triazol-3-yl)thio)ethyl)phenyl)picolinamide] | ≤ 1000 nM |  |  |  |  |  | 0.301 to 1 µM |  | fold induction at 1 µM [2, 17]: < 0.6; fold induction at 8 µM [2, 18]: 0.601 to 0.8; fold induction at 0.3 µM [3, 19]: 1.01 to 2.5; fold induction at 1 µM [3, 20]: 1.01 to 2.5; fold induction at 4 µM [3, 21]: 2.51 to 5; fold induction at 0.3 µM [4, 22]: < 1; fold induction at 1 µM [4, 23]: < 1; fold induction at 4 µM [4, 24]: 1.31 to 1.5; IC50 ([5]; * assay buffer containing 50 mM NaCl instead of 100 mM NaCl and 30 nM Src kinase instead of 60 nM, read-out: Cbl-b activity IC50 (μM)*): 0.301 to 1 µM; fold induction at 1 µM [6, 25]: 0.101 to 0.15; fold induction at 8 µM [6, 26]: 0.151 to 0.2
C[C@H](Cc1nncn1C)c1cccc(NC(=O)c2cc3cc(N4CCN(C)C(=O)C4)ccc3cn2)c1 [Compound 209, (R)-6-(4-methyl-3-oxopiperazin-1-yl)-N-(3-(1-(4-methyl-4H-1,2,4-triazol-3-yl)propan-2-yl)phenyl)isoquinoline-3-carboxamide 2,2,2-trifluoroacetate] | ≤ 100 nM |  |  |  |  |  | < 0.1 µM |  | fold induction at 1 µM [2, 17]: < 0.6; fold induction at 8 µM [2, 18]: > 1; fold induction at 0.3 µM [3, 19]: 5 to 7.5; fold induction at 1 µM [3, 20]: 5 to 7.5; fold induction at 4 µM [3, 21]: > 7.5; fold induction at 0.3 µM [4, 22]: 1.31 to 1.5; fold induction at 1 µM [4, 23]: 1.31 to 1.5; fold induction at 4 µM [4, 24]: 1.51 to 1.75; fold induction at 1 µM [6, 25]: > 0.201; fold induction at 8 µM [6, 26]: > 0.201
CN1CCN(c2cc3c(c(C(F)(F)F)c2)CN(c2cccc(C4(Cc5nncn5C)COC4)c2)C3=O)CC12CC2 [Example 583, 2-(3-(3-((4-Methyl-4H-1,2,4-triazol-3-yl)methyl)oxetan-3-yl)phenyl)-6-(4-methyl-4,7-diazaspiro[2.5]octan-7-yl)-4-(trifluoromethyl)isoindolin-1-one] | ≤ 100 nM | > 1 | 2.51 to 5 | 5 to 7.5 | 1.31 to 1.5 | 1.51 to 1.75 | < 0.1 µM | 0.151 to 0.2 | 
Cn1cnnc1CC1(c2cccc(N3Cc4c(cc(N5CCNC6(CC6)C5)cc4C(F)(F)F)C3=O)c2)COC1 [Example 582, 2-(3-(3-((4-Methyl-4H-1,2,4-triazol-3-yl)methyl)oxetan-3-yl)phenyl)-6-(4,7-diazaspiro[2.5]octan-7-yl)-4-(trifluoromethyl)isoindolin-1-one] | ≤ 100 nM | > 1 | > 7.5 | > 7.5 | 1.31 to 1.5 | 1.31 to 1.5 | < 0.1 µM | 0.101 to 0.15 | 
Cn1cnnc1CC1(c2cccc(NC(=O)c3ccnc4ccnn34)c2)COC1 [Example 605, N-(3-(3-((4-methyl-4H-1,2,4-triazol-3-yl)methyl)oxetan-3-yl)phenyl)pyrazolo[1,5-a]pyrimidine-7-carboxamide] | ≤ 300 nM | 0.601 to 0.8 | 1.01 to 2.5 | 2.51 to 5 | 1.01 to 1.3 | 1.01 to 1.3 | 0.1 to 0.3 µM | < 0.05 | 
Cn1cnnc1CC1(c2cccc(N3Cc4c(cc(CN5CCCC(F)(F)C5)cc4C(F)(F)F)C3=O)c2)COC1 [Example 693, 6-((3,3-difluoropiperidin-1-yl)methyl)-2-(3-(3-((4-methyl-4H-1,2,4-triazol-3-yl)methyl)oxetan-3-yl)phenyl)-4-(trifluoromethyl)isoindolin-1-one] | ≤ 100 nM | > 1 | > 7.5 | > 7.5 | 1.51 to 1.75 | 1.51 to 1.75 | < 0.1 µM | > 0.201 | 
